Our source for the EC50 and IC50 values is patent publication US20250136592A1, “C-LINKED INHIBITORS OF ENL/AF9 YEATS” (Bridge Medicines, priority 2021, published 2025).

The test system of assay [1] is MV4:11 (MLL-AF4 MLL) cells. The assay is described as follows: Cell viability assay (CellTiter-Glo), 12 days. Format: cell-based. The conditions noted are these: Homo sapiens, 288 h, MV4;11 cells, 12 day, read-out: CTG_MV4, 11 12 DAY_EC50. On the procedure: The assays were conducted over 12 days and the cells being split on days 4 and 8. […] Blank wells received cell culture medium. Plates were incubated for 4 days at 37° C. with 5% CO2. On days 4 and day 8 the cells were split and incubated for a further 4 days whilst an aliquot of cells were taken for the CTG readout. For the cell splitting, 270 nL of compounds or DMSO was added to a new 96 well cell culture plate to which 90 μL of medium plus 10 μL of cells from the original assay plate (after mixing) or 100 μL of medium (Blank wells) was added. This was repeated on day 8.
Cell viability was assessed using the CellTiter-Glo® homogeneous luminescent assay kit (Promega, G9243), according to the manufacturer's instructions. This quantifies ATP, which indicates the presence of metabolically active cells. […] The resulting data were analyzed as follows:
where vehicle are cells treated with 0.3% DMSO, Blank is culture medium. IC50 determinations were calculated by fitting the curve using XLfit (v5.3.1.3): Y=Bottom+(Top−Bottom)/(1+10^((LogIC50−X)*HillSlope)).
On the technique in general: ATP-based viability assays read luminescence as a measure of living cells.

A further assay addresses ENL YEATS domain (Homo sapiens (Human), UniProt Q03111). The assay is described as follows: TR-FRET ENL Screening Assay. The conditions noted are these: 6xHIS ENL YEATS domain binding to H3K9cr peptide. How it is done: Compounds of the invention were tested in a TR-FRET ENL Screening Assay. TR-FRET (time-resolved fluorescence energy transfer) can be used to quantify ENL YEATS domain binding to a crotonylated histone peptide (H3K9cr, aa1-20). Streptavidin-Europium (Eu) chelate binds the biotinylated peptide, while Anti-6×HIS ULight™ binds 6×HIS-ENL. When Eu chelate is excited at 320 nm, fluorescence resonance energy transfer (FRET) occurs if Eu and ULight are made proximal by ENL binding to the acyl-peptide.
Low control (LC) wells received 5 μL of assay buffer instead of ENL protein. […] The response at each compound concentration minus the LC value was converted to percent inhibition of the vehicle control group response (HC-LC).
In general terms: Time-resolved FRET reads energy transfer from a long-lived donor to a nearby acceptor.

Chain of ENL YEATS domain (Q03111 1-138): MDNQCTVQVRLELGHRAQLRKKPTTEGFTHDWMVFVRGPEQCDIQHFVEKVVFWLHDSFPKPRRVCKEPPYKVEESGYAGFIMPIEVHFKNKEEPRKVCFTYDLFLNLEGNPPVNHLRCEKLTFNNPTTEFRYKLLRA

Regarding `Cc1nc(C(F)(F)F)c2ccc(C(=O)Nc3cc4[nH]c([C@H]5CCCN5C)cc4cn3)cn12` [Example 53], the EC50 in assay [1] stood at 5290 nM.
As usually defined, the IC50 is the concentration at which inhibition is half-maximal. Higher therefore signals lower potency. With `CN1CCC[C@@H]1c1cc2cnc(NC(=O)c3ccc4c(c3)ncn4C)cc2[nH]1` [Example 59], the EC50 in assay [1] came to 15800 nM. For the same molecule, the IC50 on ENL YEATS domain worked out at 53 nM.
On to `CN1CCC[C@@H]1c1cc2cnc(NC(=O)c3ccc4c(C(F)(F)F)nn(C)c4c3)cc2[nH]1` [Example 39], for which, in assay [1], the EC50 came out at 2780 nM. Further, the IC50 on ENL YEATS domain is 43 nM.
Taken in the same sequence, the figures for `Cc1nccc2ccc(C(=O)Nc3cc4[nH]c([C@H]5CCCCN5C)cc4cn3)cc12` [Example 88] were 69 nM and 47 nM.
Regarding `CN1CCC[C@@H]1c1nc2ccc(NC(=O)c3ccc4onc(C5CC5)c4c3)cc2[nH]1` [Example 17], the EC50 in assay [1] came to 3250 nM.
Consider `Cc1n[nH]c2ccc(C(=O)Nc3cc4[nH]c([C@H]5CCCN5C)cc4cn3)cc12` [Example 31], for which the EC50 in assay [1] stood at 91 nM. On ENL YEATS domain, this molecule registered an IC50 of 57 nM.
Taken in the same sequence, the figures for `Cc1ncc2cc(C(=O)Nc3cc4[nH]c([C@H]5CCCN5C)cc4cn3)ccn12` [Example 42] were 117 nM and 84 nM.
For `Cc1nnn2cc(C(=O)Nc3cc4[nH]c([C@H]5CCCN5C)cc4cn3)ccc12` [Example 64] the same measures were 773 nM and 91 nM.
As for `Cc1noc2cc(C(=O)Nc3cc4[nH]c([C@H]5CCCN5C)cc4cn3)ccc12` [Example 30], the EC50 in assay [1] came to 39 nM. On ENL YEATS domain, this molecule returned an IC50 of 51 nM.
As for `Cc1nc2ccc(C(=O)Nc3cc4[nH]c([C@H]5CCCN5C)cc4cn3)cc2o1` [Example 56], in assay [1], the EC50 is 4780 nM. Besides, the IC50 on ENL YEATS domain came to 131 nM.
For `CN1CCC[C@@H]1c1cc2cnc(NC(=O)c3ccc4c(cnn4C)c3)cc2[nH]1` [Example 49] the same measures were 1440 nM and 26 nM.
For `Cc1ncc2ccc(C(=O)Nc3cc4[nH]c([C@H]5CCCCN5C)cc4cn3)cn12` [Example 89] the same measures were 252 nM and 175 nM.
With `CN1CCC[C@@H]1c1cc2ncc(NC(=O)c3ccc4cnn(C5CC5)c4c3)cc2[nH]1` [Example 82], the EC50 in assay [1] was found to be 409 nM. In addition, the IC50 on ENL YEATS domain was 102 nM.
For `CNc1c(OC)cnc2cc(C(=O)Nc3cc4[nH]c([C@H]5CCCN5C)cc4cn3)ccc12` [Example 47] the same measures were 745 nM and 28 nM.
As for `CNc1nccc2cc(C(=O)Nc3cc4[nH]c([C@H]5CCCN5C)cc4cn3)ccc12` [Example 79, (R)-1-(methylamino)-N-(2-(1-methylpyrrolidin-2-yl)-1H-pyrrolo[3,2-c]pyridin-6-yl) isoquinoline-6-carboxamide], in assay [1], the EC50 came to 446 nM.
For `Cc1noc2cc(C(=O)Nc3ccc4nc(C5CCCN5C)[nH]c4c3)ccc12` (stereo not drawn) [Example 12], the EC50 in assay [1] amounted to 201 nM. The molecule also came in with an IC50 on ENL YEATS domain of 78 nM.
For `CN1CCC[C@@H]1c1cc2cnc(NC(=O)c3ccc4c(cnn4-c4ccncc4)c3)cc2[nH]1` [Example 84] the same measures were 134 nM and 31 nM.
As for `CN1CCC[C@@H]1c1nc2cc(NC(=O)c3ccc4c(-c5ccncc5)noc4c3)ccc2[nH]1` [Example 13], the EC50 in assay [1] is 359 nM.
The same measure, in the same setting: then `CN1CCCC1c1nc2cnc(NC(=O)c3ccc4c(cnn4C)c3)cc2[nH]1` (stereo not drawn) [Example 2, 1-methyl-N-(2-(1-methylpyrrolidin-2-yl)-1H-imidazo[4,5-c]pyridin-6-yl)-1H-indazole-5-carboxamide], with 1320 nM.
Take `Cc1ncn2ccc(C(=O)Nc3cc4[nH]c([C@H]5CCCCN5C)cc4cn3)cc12` [Example 92]: the EC50 in assay [1] amounted to 100 nM. The same molecule displayed an IC50 on ENL YEATS domain of 93 nM.
With `CN1CCC[C@@H]1c1nc2ccc(NC(=O)c3ccc4c(C5CC5)nn(C)c4c3)cc2[nH]1` [Example 10], in assay [1], the EC50 turned out to be 280 nM.
With `CN1CCC[C@@H]1c1cc2cnc(NC(=O)c3ccn4c(C(F)(F)F)ncc4c3)cc2[nH]1` [Example 35], the EC50 in assay [1] was determined as 269 nM. In addition, at ENL YEATS domain, the IC50 was 114 nM.
Take `CN1CCC[C@@H]1c1nc2cc(NC(=O)c3cc4cnn(-c5ccncc5)c4cc3F)ccc2[nH]1` [Example 7, (R)-6-fluoro-N-(2-(1-methylpyrrolidin-2-yl)-1H-benzo[d]imidazol-5-yl)-1-(pyridin-4-yl)-1H-indazole-5-carboxamide]: the EC50 in assay [1] came to 101 nM. The IC50 at ENL YEATS domain amounted to 142 nM.
On to `CN1C(=O)Cc2cc(C(=O)Nc3cc4[nH]c([C@H]5CCCCN5C)cc4cn3)ccc21` [Example 95], for which the EC50 in assay [1] is 451 nM.
The same measure, in the same setting: with `Cc1cc2ccc(C(=O)Nc3cc4[nH]c([C@H]5CCCN5C)cc4cn3)cn2n1` [Example 1, 2-methyl-N-{2-[(2R)-1-methylpyrrolidin-2-yl]-1H-pyrrolo[3,2-c]pyridin-6-yl}pyrazolo[1,5-a]pyridine-6-carboxamide] the figure was 3250 nM.
As for `Cc1noc2ccc(C(=O)Nc3ccc4nc([C@H]5CCCN5C)[nH]c4c3)cc12` [Example 11], at ENL YEATS domain, the IC50 was determined as 465 nM.
Regarding `CN1CCC[C@@H]1c1cc2cnc(NC(=O)c3cnc4c(ccn4C)c3)cc2[nH]1` [Example 44], on ENL YEATS domain, the IC50 stood at 780 nM.
`CN1CCC[C@@H]1c1nc2cc(NC(=O)c3ccc4c(cnn4-c4ccncc4)c3)ccc2[nH]1` [Example 3, (R)—N-(2-(1-methylpyrrolidin-2-yl)-1H-benzo[d]imidazol-5-yl)-1-(pyridin-4-yl)-1H-indazole-5-carboxamide]: the EC50 in assay [1] is 571 nM.
On ENL YEATS domain, `CN1CCCCC1c1nc2cc(NC(=O)c3ccc4c(cnn4C)c3)ccc2[nH]1` (stereo not drawn) [Example 9, 1-methyl-N-[2-(1-methylpiperidin-2-yl)-1H-1,3-benzodiazol-5-yl]indazole-5-carboxamide] had an IC50 of 200 nM.
On the same count and under the same terms, with `CN1CCC[C@@H]1c1nc2cc(NC(=O)c3ccc4c(cnn4-c4cccnc4)c3)ccc2[nH]1` [Example 22] the figure was 131 nM.
With `CN1CCCC[C@@H]1c1cc2cnc(NC(=O)c3ccc4c(cnn4C)c3)cc2[nH]1` [Example 98], the EC50 in assay [1] was found to be 440 nM.
At ENL YEATS domain, `CN1CCC[C@@H]1c1nc2cc(NC(=O)c3ccc4c(cnn4-c4ccncn4)c3)ccc2[nH]1` [Example 23] displayed an IC50 of 277 nM.
On the same count and under the same terms, with `CN1CCC[C@@H]1c1cc2cnc(NC(=O)c3ccc4c(c3)[nH]c(=O)n4C)cc2[nH]1` [Example 48] the figure was 30 nM.
In the case of `Cc1nc(C)n2cc(C(=O)Nc3cc4[nH]c([C@H]5CCCN5C)cc4cn3)ccc12` [Example 71], the EC50 in assay [1] turned out to be 220 nM.
On the same count and under the same terms, then `CN1CCC[C@@H]1c1cc2cnc(NC(=O)c3ccc4c(c3)nnn4-c3ccncc3)cc2[nH]1` [Example 85], with 488 nM.
`Cc1noc2c(F)c(C(=O)Nc3ccc4nc([C@H]5CCCN5C)[nH]c4c3)ccc12` [Example 18] returned an IC50 at ENL YEATS domain of 125 nM.
As to `CN1CCC[C@@H]1c1nc2ccc(NC(=O)c3cc4cccnc4cc3F)cc2[nH]1` [Example 16], in assay [1], the EC50 came to 106 nM.
On the same count and under the same terms, then `CN1CCCC[C@@H]1c1cc2cnc(NC(=O)c3ccc4nnn(C)c4c3)cc2[nH]1` [Example 91, (R)-1-methyl-N-(2-(1-methylpiperidin-2-yl)-1H-pyrrolo[3,2-c]pyridin-6-yl)-1H-benzo[d][1,2,3]triazole-6-carboxamide], with 215 nM.
`CN1CCC[C@@H]1c1nc2cc(NC(=O)c3ccc4c(cnn4-c4ccccn4)c3)ccc2[nH]1` [Example 21] had an IC50 at ENL YEATS domain of 200 nM. In other words, the sub-micromolar range.
For the molecule `Cc1nccc2cc(C(=O)Nc3cc4[nH]c([C@H]5CCCCN5C)cc4cn3)ccc12` [Example 80, (R)-1-methyl-N-(2-(1-methylpiperidin-2-yl)-1H-pyrrolo[3,2-c]pyridin-6-yl) isoquinoline-6-carboxamide], the EC50 in assay [1] came to 187 nM.
In the case of `CN1CCCC1c1nc2ccc(NC(=O)c3ccc4ncccc4c3)cc2[nH]1` (stereo not drawn) [Example 25], at ENL YEATS domain, the IC50 stood at 181 nM.
Turning to `CN1CCCC[C@@H]1c1cc2cnc(NC(=O)c3ccc4cc(=O)n(C)n4c3)cc2[nH]1` [Example 97], the EC50 in assay [1] is 146 nM.
The same measure, in the same setting: then `Cc1ccc2cc(C(=O)Nc3cnc4cc([C@H]5CCCN5C)[nH]c4c3)c(F)cc2n1` [Example 73], with 1420 nM.
`CN1CCC[C@@H]1c1cc2cnc(NC(=O)c3cc4c(cn3)cnn4C)cc2[nH]1` [Example 5, (R)-1-methyl-N-(2-(1-methylpyrrolidin-2-yl)-1H-pyrrolo[3,2-c]pyridin-6-yl)-1H-pyrazolo[4,3-c]pyridine-6-carboxamide] came in with an IC50 on ENL YEATS domain of 1240 nM. In other words, the single-digit micromolar range.
As to `CN1CCCC[C@@H]1c1cc2cnc(NC(=O)c3ccc4c(=O)n(C)ccc4c3)cc2[nH]1` [Example 100, (R)-2-methyl-N-(2-(1-methylpiperidin-2-yl)-1H-pyrrolo[3,2-c]pyridin-6-yl)-1-oxo-1,2-dihydroisoquinoline-6-carboxamide], in assay [1], the EC50 came out at 202 nM.
With `COc1nccc2cc(C(=O)Nc3cc4[nH]c([C@H]5CCCN5C)cc4cn3)ccc12` [Example 52], the IC50 on ENL YEATS domain came to 25 nM. That is a double-digit nanomolar value.
